ChEMBL document CHEMBL3885861, “Open TG-GATES”

Species: Rattus norvegicus
Test: Open TG-GATES - Regimen: Daily Repeat
Format: toxicity, organism-based, Sprague-Dawley
Set-up: regimen Daily Repeat, gender Male, age 6 weeks
Conditions: in vivo, po, 0 mg/kg, route gavage, dose level Control; for APTT / Bas / Eos / Fbg / Hb / Lym / MCH / MCHC / MCV / Mono / Neu / PT / Plat / RBC / Ret / WBC: tissue Blood; for KIDNEY_L / KIDNEY_R / KIDNEY_TOTAL: tissue Kidney; for LIVER: tissue Liver; for ALP / ALT / AST / BUN / CRE / Ca / Cl / DBIL / GLC / IP / K / LDH / Na / PL / RALB / TBIL / TC / TG / TP / gamma-GTP: tissue Plasma

**Q.** Which results are given for OCCN1CCN(CCCN2c3ccccc3Sc3ccc(C(F)(F)F)cc32)CC1 [FLUPHENAZINE]?
**A.** TERMINAL_BW (72 h, time 3 day): 233.9 g; APTT (72 h, time 3 day): 16.9 s; Bas (72 h, time 3 day): 0%; Eos (72 h, time 3 day): 1%; Fbg (72 h, time 3 day): 232.5 mg/dL; Hb (72 h, time 3 day): 13.6 g/dL; Lym (72 h, time 3 day): 77%; MCH (72 h, time 3 day): 21.5 pg; MCHC (72 h, time 3 day): 33.3%; MCV (72 h, time 3 day): 64.4 fL; Mono (72 h, time 3 day): 7.2%; Neu (72 h, time 3 day): 15%; PT (72 h, time 3 day): 12 s; Plat (72 h, time 3 day): 126.3 x10_4/uL; RBC (72 h, time 3 day): 632.2 x10_4/ul; Ret (72 h, time 3 day): 6.2%; WBC (72 h, time 3 day): 99.4 x10_2/uL; KIDNEY_L (72 h, time 3 day): 1.1 g; KIDNEY_R (72 h, time 3 day): 1.1 g; KIDNEY_TOTAL (72 h, time 3 day): 2.2 g; LIVER (72 h, time 3 day): 11.9 g; ALP (72 h, time 3 day): 922 IU/L; ALT (72 h, time 3 day): 35.2 IU/L; AST (72 h, time 3 day): 60.2 IU/L; BUN (72 h, time 3 day): 17.2 mg/dL; CRE (72 h, time 3 day): 0.6 mg/dL; Ca (72 h, time 3 day): 10.8 mg/dL; Cl (72 h, time 3 day): 104.5 meq/L; DBIL (72 h, time 3 day): 0.035 mg/dL; GLC (72 h, time 3 day): 185 mg/dL; IP (72 h, time 3 day): 8.5 mg/dL; K (72 h, time 3 day): 4.9 meq/L; LDH (72 h, time 3 day): 77.2 IU/L; Na (72 h, time 3 day): 137.8 meq/L; PL (72 h, time 3 day): 163 mg/dL; RALB (72 h, time 3 day): 4 g/dL; TBIL (72 h, time 3 day): 0.3 mg/dL; TC (72 h, time 3 day): 86.2 mg/dL; TG (72 h, time 3 day): 96.8 mg/dL; TP (72 h, time 3 day): 5.8 g/dL; gamma-GTP (72 h, time 3 day): 0.5 IU/L; TERMINAL_BW ([…], time 7 day): 262.6 g; TERMINAL_BW ([…], time 14 day): 300.9 g; TERMINAL_BW ([…], time 28 day): 402.6 g; APTT ([…], time 7 day): 16.3 s; Bas ([…], time 7 day): 0%; Eos ([…], time 7 day): 1%; Fbg ([…], time 7 day): 239.4 mg/dL; Hb ([…], time 7 day): 13.5 g/dL; Lym ([…], time 7 day): 80.6%; MCH ([…], time 7 day): 21.6 pg; MCHC ([…], time 7 day): 33.5%; MCV ([…], time 7 day): 64.4 fL; Mono ([…], time 7 day): 4%; Neu ([…], time 7 day): 15.2%; PT ([…], time 7 day): 11.9 s; Plat ([…], time 7 day): 114.7 x10_4/uL; RBC ([…], time 7 day): 627.6 x10_4/ul; Ret ([…], time 7 day): 5.2%; WBC ([…], time 7 day): 114 x10_2/uL; APTT ([…], time 14 day): 17.2 s; Bas ([…], time 14 day): 0%; Eos ([…], time 14 day): 0.6%; Fbg ([…], time 14 day): 235.6 mg/dL; Hb ([…], time 14 day): 14.2 g/dL; Lym ([…], time 14 day): 82.8%; MCH ([…], time 14 day): 20.3 pg; MCHC ([…], time 14 day): 33.3%; MCV ([…], time 14 day): 61.1 fL; Mono ([…], time 14 day): 5.4%; Neu ([…], time 14 day): 11%; PT ([…], time 14 day): 11.7 s; Plat ([…], time 14 day): 107.2 x10_4/uL; RBC ([…], time 14 day): 699.2 x10_4/ul; Ret ([…], time 14 day): 3.7%; WBC ([…], time 14 day): 145.4 x10_2/uL; APTT ([…], time 28 day): 17.2 s; Bas ([…], time 28 day): 0%; Eos ([…], time 28 day): 1%; Fbg ([…], time 28 day): 231 mg/dL; Hb ([…], time 28 day): 15.2 g/dL; Lym ([…], time 28 day): 84.8%; MCH ([…], time 28 day): 19.7 pg; MCHC ([…], time 28 day): 33.4%; MCV ([…], time 28 day): 58.8 fL; Mono ([…], time 28 day): 4.8%; Neu ([…], time 28 day): 9.8%; PT ([…], time 28 day): 11.8 s; Plat ([…], time 28 day): 92.5 x10_4/uL; RBC ([…], time 28 day): 774 x10_4/ul; Ret ([…], time 28 day): 2.7%; WBC ([…], time 28 day): 160.8 x10_2/uL; KIDNEY_L ([…], time 7 day): 1.2 g; KIDNEY_R ([…], time 7 day): 1.2 g; KIDNEY_TOTAL ([…], time 7 day): 2.3 g; KIDNEY_L ([…], time 14 day): 1.2 g; KIDNEY_R ([…], time 14 day): 1.2 g; KIDNEY_TOTAL ([…], time 14 day): 2.4 g; KIDNEY_L ([…], time 28 day): 1.5 g; KIDNEY_R ([…], time 28 day): 1.5 g; KIDNEY_TOTAL ([…], time 28 day): 2.9 g; LIVER ([…], time 7 day): 13.1 g; LIVER ([…], time 14 day): 13.9 g; LIVER ([…], time 28 day): 17.1 g; ALP ([…], time 7 day): 774.2 IU/L; ALT ([…], time 7 day): 30.4 IU/L; AST ([…], time 7 day): 61.6 IU/L; BUN ([…], time 7 day): 18.4 mg/dL; CRE ([…], time 7 day): 0.5 mg/dL; Ca ([…], time 7 day): 10.5 mg/dL; Cl ([…], time 7 day): 106.2 meq/L; DBIL ([…], time 7 day): 0.016 mg/dL; GLC ([…], time 7 day): 196.2 mg/dL; IP ([…], time 7 day): 8.4 mg/dL; K ([…], time 7 day): 4.6 meq/L; LDH ([…], time 7 day): 82.6 IU/L; Na ([…], time 7 day): 138.8 meq/L; PL ([…], time 7 day): 156 mg/dL; RALB ([…], time 7 day): 3.9 g/dL; TBIL ([…], time 7 day): 0.3 mg/dL; TC ([…], time 7 day): 79.4 mg/dL; TG ([…], time 7 day): 101 mg/dL; TP ([…], time 7 day): 5.9 g/dL; gamma-GTP ([…], time 7 day): 1.6 IU/L; ALP ([…], time 14 day): 734.4 IU/L; ALT ([…], time 14 day): 30.6 IU/L; AST ([…], time 14 day): 55.8 IU/L; BUN ([…], time 14 day): 19.8 mg/dL; CRE ([…], time 14 day): 0.5 mg/dL; Ca ([…], time 14 day): 11 mg/dL; Cl ([…], time 14 day): 102.6 meq/L; DBIL ([…], time 14 day): 0 mg/dL; GLC ([…], time 14 day): 186.6 mg/dL; IP ([…], time 14 day): 8.5 mg/dL; K ([…], time 14 day): 4.5 meq/L; LDH ([…], time 14 day): 97.4 IU/L; Na ([…], time 14 day): 135.8 meq/L; PL ([…], time 14 day): 166 mg/dL; RALB ([…], time 14 day): 4.2 g/dL; TBIL ([…], time 14 day): 0.3 mg/dL; TC ([…], time 14 day): 77 mg/dL; TG ([…], time 14 day): 181.8 mg/dL; TP ([…], time 14 day): 6.2 g/dL; gamma-GTP ([…], time 14 day): 1.4 IU/L; ALP ([…], time 28 day): 649.8 IU/L; ALT ([…], time 28 day): 32.2 IU/L; AST ([…], time 28 day): 57 IU/L; BUN ([…], time 28 day): 20.6 mg/dL; CRE ([…], time 28 day): 0.6 mg/dL; Ca ([…], time 28 day): 10.8 mg/dL; Cl ([…], time 28 day): 104.8 meq/L; DBIL ([…], time 28 day): 0.01 mg/dL; GLC ([…], time 28 day): 197.4 mg/dL; IP ([…], time 28 day): 7 mg/dL; K ([…], time 28 day): 4.5 meq/L; LDH ([…], time 28 day): 80 IU/L; Na ([…], time 28 day): 140.8 meq/L; PL ([…], time 28 day): 171.6 mg/dL; RALB ([…], time 28 day): 4.1 g/dL; TBIL ([…], time 28 day): 0.3 mg/dL; TC ([…], time 28 day): 74.6 mg/dL; TG ([…], time 28 day): 216 mg/dL; TP ([…], time 28 day): 6.4 g/dL; gamma-GTP ([…], time 28 day): 1 IU/L
